Measured values taken from US12630600B2 (MEDIMMUNE LIMITED, priority 2022, dated 2026).
Starred links: 1 amine or outer side, 2 acyl side, 3 side chain; linkers in the order of their positions; H or OH if unused. Non-standard residues stand in square brackets, D forms with d. Residues, ends and D or L forms follow the SMILES beside them. Groups on a side chain read outwards from the residue. *: point of attachment. C20 diacid = O=C(O)CCCCCCCCCCCCCCCCCCC(=O)*; C18 diacid = O=C(O)CCCCCCCCCCCCCCCCC(=O)*; γGlu = O=C(O)[C@H](CCC(=O)[*:2])N[*:1]; αMeF = C[C@](N)(Cc1ccccc1)C(=O)O; PEG2 = NCCOCCOCCC(=O)O; AEEA = NCCOCCOCC(=O)O; Aib = CC(C)(N)C(=O)O

Target: T1, human GLP-1 receptor (hGLP-1R) (Homo sapiens, UniProt P43220)
T1 construct: expressed in transfected cells; host or cells: CHO
T1 sequence (P43220 24-463): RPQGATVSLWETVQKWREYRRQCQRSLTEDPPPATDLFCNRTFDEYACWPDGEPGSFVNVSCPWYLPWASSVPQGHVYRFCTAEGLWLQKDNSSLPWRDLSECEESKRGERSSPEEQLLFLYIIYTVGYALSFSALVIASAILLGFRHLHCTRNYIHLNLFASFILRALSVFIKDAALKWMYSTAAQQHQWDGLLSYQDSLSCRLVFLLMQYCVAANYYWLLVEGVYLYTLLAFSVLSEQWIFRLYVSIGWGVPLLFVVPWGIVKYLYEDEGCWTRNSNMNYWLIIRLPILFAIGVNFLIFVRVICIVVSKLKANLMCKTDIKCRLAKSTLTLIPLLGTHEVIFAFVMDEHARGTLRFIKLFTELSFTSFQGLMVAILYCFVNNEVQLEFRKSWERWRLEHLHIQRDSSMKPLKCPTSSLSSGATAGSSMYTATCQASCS
Assay: cAMP production (HTRF) in CHO cells expressing human GLP-1 receptor
Format: cell-based
Settings: Table 8; % GLP-1R activity relative to GLP-1 / % GlucR activity relative to glucagon
Description: Cells were re-suspended in assay buffer at a batch-dependent optimized concentration (typically hGLP-1R cells at 1×10^5 cells/mL, hGCGR cells at 2×10^5 cells/mL).
Cells were added to the assay plate using a multidrop dispenser and incubated at room temperature for 30 minutes before measuring the cAMP level using a cAMP dynamic 2 homogeneous time resolved Fluorescence (HTRF) kit (Cisbio Bioassays #62AM4PEJ) following the two-step protocol as per manufacturer's recommendations. In brief, anti-cAMP cryptate (donor fluorophore) and cAMP-d2 (acceptor fluorophore) were made up separately by diluting each 1 in 20 in conjugate and lysis buffer provided in the kit. Anti-cAMP cryptate was added to all wells of the assay plate, followed by cAMP-d2 added to all wells except non-specific binding (NSB) wells (to which conjugate and lysis buffer was added).
Data was transformed to % Delta F as described in the manufacturer's guidelines and analyzed by 4-parameter logistic fit to determine EC50 values.

% Relative Potency Ratio | Molecule
1.1 | CC[C@H](C)[C@H](NC(=O)[C@H](Cc1c[nH]c2ccccc12)NC(=O)[C@H](CCCCNC(=O)COCCOCCNC(=O)COCCOCCNC(=O)CC[C@H](NC(=O)CCCCCCCCCCCCCCCCC(=O)O)C(=O)O)NC(=O)[C@@H](NC(=O)[C@](C)(Cc1ccccc1)NC(=O)[C@H](CC(=O)O)NC(=O)[C@H](CCC(N)=O)NC(=O)[C@H](C)NC(=O)[C@H](C)NC(=O)[C@H](CCC(N)=O)NC(=O)[C@H](CO)NC(=O)[C@H](CC(=O)O)NC(=O)[C@H](CC(C)C)NC(=O)[C@](C)(Cc1ccccc1)NC(=O)[C@H](CCCCN)NC(=O)[C@H](CO)NC(=O)[C@@H](NC(=O)[C@H](CC(=O)O)NC(=O)[C@H](CO)NC(=O)[C@@H](NC(=O)[C@](C)(Cc1ccccc1)NC(=O)[C@H](CO)NC(=O)CNC(=O)[C@H](Cc1c[nH]cn1)NC(=O)C(C)(C)NC(=O)[C@@H](N)Cc1c[nH]cn1)[C@@H](C)O)C(C)C)C(C)C)C(=O)N[C@@H](C)C(=O)N[C@@H](CC(N)=O)C(=O)N[C@H](C(N)=O)[C@@H](C)O [Peptide 370] (H-H[Aib]HGS[αMeF]TSDVSK[αMeF]LDSQAAQD[αMeF]VK([AEEA-AEEA-γGlu-C18 diacid])WIANT-NH2; N-terminus assumed)
2.3 | CC[C@H](C)[C@H](NC(=O)C(C)(C)NC(=O)[C@H](CCCCNC(=O)COCCOCCNC(=O)COCCOCCNC(=O)CC[C@H](NC(=O)CCCCCCCCCCCCCCCCC(=O)O)C(=O)O)NC(=O)[C@@H](NC(=O)[C@](C)(Cc1ccccc1)NC(=O)[C@H](CC(=O)O)NC(=O)[C@H](CCC(N)=O)NC(=O)[C@H](C)NC(=O)[C@H](C)NC(=O)[C@H](CCC(N)=O)NC(=O)[C@H](CO)NC(=O)[C@H](CC(=O)O)NC(=O)[C@H](CC(C)C)NC(=O)[C@](C)(Cc1ccccc1)NC(=O)[C@H](CCCCN)NC(=O)[C@H](CO)NC(=O)[C@@H](NC(=O)[C@H](CC(=O)O)NC(=O)[C@H](CO)NC(=O)[C@@H](NC(=O)[C@](C)(Cc1ccccc1)NC(=O)[C@H](CO)NC(=O)CNC(=O)[C@H](Cc1c[nH]cn1)NC(=O)C(C)(C)NC(=O)[C@@H](N)Cc1c[nH]cn1)[C@@H](C)O)C(C)C)C(C)C)C(=O)N[C@@H](C)C(=O)N[C@@H](CC(N)=O)C(=O)N[C@H](C(N)=O)[C@@H](C)O [Peptide 383] (H-H[Aib]HGS[αMeF]TSDVSK[αMeF]LDSQAAQD[αMeF]VK([AEEA-AEEA-γGlu-C18 diacid])[Aib]IANT-NH2; N-terminus assumed)

Further lines, the molecule ahead of its results:

Molecule | % Relative Potency Ratio
CC[C@H](C)[C@H](NC(=O)[C@H](Cc1c[nH]c2ccccc12)NC(=O)[C@H](CCCCNC(=O)COCCOCCNC(=O)COCCOCCNC(=O)CC[C@H](NC(=O)CCCCCCCCCCCCCCCCC(=O)O)C(=O)O)NC(=O)[C@@H](NC(=O)[C@H](Cc1ccccc1)NC(=O)[C@H](CC(=O)O)NC(=O)[C@H](CCC(N)=O)NC(=O)[C@H](C)NC(=O)[C@H](C)NC(=O)[C@H](CCC(N)=O)NC(=O)[C@H](CO)NC(=O)[C@H](CC(=O)O)NC(=O)[C@H](CC(C)C)NC(=O)[C@](C)(Cc1ccccc1)NC(=O)[C@H](CCCCN)NC(=O)[C@H](CO)NC(=O)[C@@H](NC(=O)[C@H](CC(=O)O)NC(=O)[C@H](CO)NC(=O)[C@@H](NC(=O)[C@](C)(Cc1ccccc1)NC(=O)[C@H](CO)NC(=O)CNC(=O)[C@H](Cc1c[nH]cn1)NC(=O)C(C)(C)NC(=O)[C@@H](N)Cc1c[nH]cn1)[C@@H](C)O)C(C)C)C(C)C)C(=O)N[C@@H](C)C(=O)N[C@@H](CC(N)=O)C(=O)N[C@H](C(=O)NCC(=O)NCC(N)=O)[C@@H](C)O [Peptide 350] (H-H[Aib]HGS[αMeF]TSDVSK[αMeF]LDSQAAQDFVK([AEEA-AEEA-γGlu-C18 diacid])WIANTGG-NH2; N-terminus assumed) | 8.6
CC[C@H](C)[C@H](NC(=O)[C@H](Cc1c[nH]c2ccccc12)NC(=O)[C@H](CCCCNC(=O)COCCOCCNC(=O)COCCOCCNC(=O)CC[C@H](NC(=O)CCCCCCCCCCCCCCCCCCC(=O)O)C(=O)O)NC(=O)[C@@H](NC(=O)[C@H](Cc1ccccc1)NC(=O)[C@H](CC(=O)O)NC(=O)[C@H](CCC(N)=O)NC(=O)[C@H](C)NC(=O)C(C)(C)NC(=O)[C@H](CCCNC(=N)N)NC(=O)[C@H](CO)NC(=O)[C@H](CC(=O)O)NC(=O)[C@H](CC(C)C)NC(=O)[C@](C)(Cc1ccccc1)NC(=O)[C@H](CCCCN)NC(=O)[C@H](CO)NC(=O)[C@@H](NC(=O)[C@H](CC(=O)O)NC(=O)[C@H](CO)NC(=O)[C@@H](NC(=O)[C@](C)(Cc1ccccc1)NC(=O)[C@H](CO)NC(=O)CNC(=O)[C@H](Cc1c[nH]cn1)NC(=O)C(C)(C)NC(=O)[C@@H](N)Cc1c[nH]cn1)[C@@H](C)O)C(C)C)C(C)C)C(=O)N[C@@H](C)C(=O)N[C@@H](CC(N)=O)C(=O)N[C@H](C(N)=O)[C@@H](C)O [Peptide 368, H(Aib)HGS(αMePhe)TSDVSK(αMePhe)LDSR(Aib)AQDFVK(O2OC-O2OC-γE-C20diacid)24WIANT-amide] (H-H[Aib]HGS[αMeF]TSDVSK[αMeF]LDSR[Aib]AQDFVK([AEEA-AEEA-γGlu-C20 diacid])WIANT-NH2; N-terminus assumed) | 3.1
CC[C@H](C)[C@H](NC(=O)[C@H](Cc1c[nH]c2ccccc12)NC(=O)[C@H](CCCCNC(=O)CCOCCOCCNC(=O)CCOCCOCCNC(=O)CC[C@H](NC(=O)CC[C@H](NC(=O)CCCCCCCCCCCCCCCCCCC(=O)O)C(=O)O)C(=O)O)NC(=O)[C@@H](NC(=O)[C@H](Cc1ccccc1)NC(=O)[C@H](CC(=O)O)NC(=O)[C@H](CCC(N)=O)NC(=O)[C@H](C)NC(=O)[C@H](C)NC(=O)[C@H](CCC(N)=O)NC(=O)[C@H](CO)NC(=O)[C@H](CC(=O)O)NC(=O)[C@H](CC(C)C)NC(=O)[C@](C)(Cc1ccccc1)NC(=O)[C@H](CCCCN)NC(=O)[C@H](CO)NC(=O)[C@@H](NC(=O)[C@H](CC(=O)O)NC(=O)[C@H](CO)NC(=O)[C@@H](NC(=O)[C@](C)(Cc1ccccc1)NC(=O)[C@H](CO)NC(=O)CNC(=O)[C@H](Cc1c[nH]cn1)NC(=O)C(C)(C)NC(=O)[C@@H](N)Cc1c[nH]cn1)[C@@H](C)O)C(C)C)C(C)C)C(=O)N[C@@H](C)C(=O)N[C@@H](CC(N)=O)C(=O)N[C@H](C(N)=O)[C@@H](C)O [Peptide 355] (H-H[Aib]HGS[αMeF]TSDVSK[αMeF]LDSQAAQDFVK([PEG2-PEG2-γGlu-γGlu-C20 diacid])WIANT-NH2; N-terminus assumed) | 2.2
CC[C@H](C)[C@H](NC(=O)C(C)(C)NC(=O)[C@H](CCCCNC(=O)COCCOCCNC(=O)COCCOCCNC(=O)CC[C@H](NC(=O)CCCCCCCCCCCCCCCCC(=O)O)C(=O)O)NC(=O)[C@@H](NC(=O)[C@H](Cc1ccccc1)NC(=O)[C@H](CC(=O)O)NC(=O)[C@H](CCC(N)=O)NC(=O)[C@H](C)NC(=O)[C@H](C)NC(=O)[C@H](CCCNC(=N)N)NC(=O)[C@H](CO)NC(=O)[C@H](CC(=O)O)NC(=O)[C@H](CC(C)C)NC(=O)[C@](C)(Cc1ccccc1)NC(=O)[C@H](CCCCN)NC(=O)[C@H](CO)NC(=O)[C@@H](NC(=O)[C@H](CC(=O)O)NC(=O)[C@H](CO)NC(=O)[C@@H](NC(=O)[C@](C)(Cc1ccccc1)NC(=O)[C@H](CO)NC(=O)CNC(=O)[C@H](Cc1c[nH]cn1)NC(=O)C(C)(C)NC(=O)[C@@H](N)Cc1c[nH]cn1)[C@@H](C)O)C(C)C)C(C)C)C(=O)N[C@@H](C)C(=O)N[C@@H](CC(N)=O)C(=O)N[C@H](C(N)=O)[C@@H](C)O [Peptide 366] (H-H[Aib]HGS[αMeF]TSDVSK[αMeF]LDSRAAQDFVK([AEEA-AEEA-γGlu-C18 diacid])[Aib]IANT-NH2; N-terminus assumed) | 1.7
CC[C@H](C)[C@H](NC(=O)[C@H](Cc1c[nH]c2ccccc12)NC(=O)[C@H](CCCCNC(=O)COCCOCCNC(=O)COCCOCCNC(=O)CC[C@H](NC(=O)CCCCCCCCCCCCCCCCCCC(=O)O)C(=O)O)NC(=O)[C@@H](NC(=O)[C@H](Cc1ccccc1)NC(=O)[C@H](CC(=O)O)NC(=O)[C@H](CCC(N)=O)NC(=O)[C@H](C)NC(=O)[C@H](C)NC(=O)[C@H](CCCNC(=N)N)NC(=O)[C@H](CO)NC(=O)[C@H](CC(=O)O)NC(=O)[C@H](CC(C)C)NC(=O)[C@](C)(Cc1ccccc1)NC(=O)[C@H](CCCCN)NC(=O)[C@H](CO)NC(=O)[C@@H](NC(=O)[C@H](CC(=O)O)NC(=O)[C@H](CO)NC(=O)[C@@H](NC(=O)[C@](C)(Cc1ccccc1)NC(=O)[C@H](CO)NC(=O)CNC(=O)[C@H](Cc1c[nH]cn1)NC(=O)C(C)(C)NC(=O)[C@@H](N)Cc1c[nH]cn1)[C@@H](C)O)C(C)C)C(C)C)C(=O)N[C@@H](C)C(=O)N[C@@H](CC(N)=O)C(=O)N[C@H](C(N)=O)[C@@H](C)O [Peptide 367] (H-H[Aib]HGS[αMeF]TSDVSK[αMeF]LDSRAAQDFVK([AEEA-AEEA-γGlu-C20 diacid])WIANT-NH2; N-terminus assumed) | 1.0

Same assay, conditions: Table 9; % GLP-1R activity relative to GLP-1 / % GlucR activity relative to glucagon

Molecule | % Relative Potency Ratio
H(Aib)HGS(αMePhe)TSDK(O2OC-O2OC-γE-γE-C20diacid)10SK(αMePhe)LDSRAAQD(αMePhe)VQ(Aib)IANT-amide [Peptide 391] | 49.1

Same assay, conditions: Table 10; % GLP-1R activity relative to GLP-1 / % GlucR activity relative to glucagon

% Relative Potency Ratio | Molecule
31.6 | H(Aib)HGS(αMePhe)TSDVSKK(O2OC-O2OC-γE-C18diacid)13LDSRAAQD(αMePhe)VQ(Aib)IANT-amide [Peptide 406]
